Data taken from ChEMBL document CHEMBL4422676, “Fragment-based screening of programmed death ligand 1 (PD-L1)” (Bioorg Med Chem Lett, 2019).

Key:
[1] = biological target: Programmed cell death 1 ligand 1 (Homo sapiens, UniProt Q9NZQ7, H140E); test: Binding affinity to human 15N-labelled 6His-tagged PDL1 IgV domain H140E mutant (18 to 134 residues) expressed in Escherichia coli BL21 (DE3) by 1D-1H NMR spectroscopy
[2] = test system: Programmed cell death 1 ligand 1 (Homo sapiens), Q9NZQ7 [UNDEFINED MUTATION]; test: Displacement of 15N-labelled PD1 from human 15N-labelled 6His-tagged PDL1 IgV domain H140E mutant (18 to 134 residues) at 800 uM assessed as rescue signal intensity by HMQC spectra analysis
[3] = test system: Programmed cell death 1 ligand 1 (Homo sapiens), Q9NZQ7 [UNDEFINED MUTATION]; test: Displacement of 15N-labelled PD1 from human 15N-labelled 6His-tagged PDL1 IgV domain H140E mutant (18 to 134 residues) at 2 mM assessed as rescue signal intensity by HMQC spectra analysis

Sequence of Programmed cell death 1 ligand 1 (Homo sapiens), Q9NZQ7 [UNDEFINED MUTATION] (Q9NZQ7 whole entry, looked up, stated change not applied, the tested form may be a part): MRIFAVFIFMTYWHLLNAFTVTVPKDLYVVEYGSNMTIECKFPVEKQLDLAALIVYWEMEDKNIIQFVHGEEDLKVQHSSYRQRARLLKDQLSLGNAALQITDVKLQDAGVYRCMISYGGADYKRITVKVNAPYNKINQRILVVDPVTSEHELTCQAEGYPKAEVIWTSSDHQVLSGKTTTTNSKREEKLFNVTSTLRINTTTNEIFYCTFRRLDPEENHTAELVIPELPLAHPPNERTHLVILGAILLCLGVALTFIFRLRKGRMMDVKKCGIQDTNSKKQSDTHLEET
Sequence of Programmed cell death 1 ligand 1 (Q9NZQ7 whole entry, looked up, stated change not applied, the tested form may be a part): as above

SMILES	Kd ([1]; read-out: Kd) [mM]	Activity [2] [%]	Kd [1]	Activity [3] [%]
CCN(CC)C(=O)c1sc2ccccc2c1Cl	2.5	> 15	–	–
Cc1nc2cc(-c3ccccc3)ccc2o1	–	1 to 15	Nd(Insoluble)	–
Oc1ncnc2scc(-c3ccccc3)c12	–	> 15	Nd(Insoluble)	75
Cc1sc(N)nc1-c1ccc2c(c1)OCCO2	1.2	> 15	–	–
Cc1cc(Nc2ccc(N3CCCC3)cc2)ncn1	3	1 to 15	–	–
CC(=O)Oc1ccc2c(c1)cc(C)n2C	–	> 15	Nd(Insoluble)	–
COc1ccc2nc(NCc3cccnc3)sc2c1	2.9	1 to 15	–	–
CNCc1ccc(-c2cc(Cl)cc(Cl)c2)o1	1.9	> 15	–	–
COC(=O)c1[nH]cc(-c2ccccc2F)c1N	–	1 to 15	Nd(Insoluble)	–
